Laboratory results published in PMC7429354, “Potentiating TMEM16A does not stimulate airway mucus secretion or bronchial and pulmonary arterial smooth muscle contraction” (FASEB BioAdvances, 2020).
pEC50: −log10 of the molar value.

Key:
TMEM16A [1] = biological target: T1, TMEM16A (Rattus norvegicus, UniProt D4A915); test: QPatch automated whole-cell patch clamp, recombinant channel (potentiator, maximum […] efficacy); type: cell-based
T1 construct: gene Ano1; full-length (NM_01107564.1), stably expressed in a cell line
T1 sequence (D4A915 1-1105): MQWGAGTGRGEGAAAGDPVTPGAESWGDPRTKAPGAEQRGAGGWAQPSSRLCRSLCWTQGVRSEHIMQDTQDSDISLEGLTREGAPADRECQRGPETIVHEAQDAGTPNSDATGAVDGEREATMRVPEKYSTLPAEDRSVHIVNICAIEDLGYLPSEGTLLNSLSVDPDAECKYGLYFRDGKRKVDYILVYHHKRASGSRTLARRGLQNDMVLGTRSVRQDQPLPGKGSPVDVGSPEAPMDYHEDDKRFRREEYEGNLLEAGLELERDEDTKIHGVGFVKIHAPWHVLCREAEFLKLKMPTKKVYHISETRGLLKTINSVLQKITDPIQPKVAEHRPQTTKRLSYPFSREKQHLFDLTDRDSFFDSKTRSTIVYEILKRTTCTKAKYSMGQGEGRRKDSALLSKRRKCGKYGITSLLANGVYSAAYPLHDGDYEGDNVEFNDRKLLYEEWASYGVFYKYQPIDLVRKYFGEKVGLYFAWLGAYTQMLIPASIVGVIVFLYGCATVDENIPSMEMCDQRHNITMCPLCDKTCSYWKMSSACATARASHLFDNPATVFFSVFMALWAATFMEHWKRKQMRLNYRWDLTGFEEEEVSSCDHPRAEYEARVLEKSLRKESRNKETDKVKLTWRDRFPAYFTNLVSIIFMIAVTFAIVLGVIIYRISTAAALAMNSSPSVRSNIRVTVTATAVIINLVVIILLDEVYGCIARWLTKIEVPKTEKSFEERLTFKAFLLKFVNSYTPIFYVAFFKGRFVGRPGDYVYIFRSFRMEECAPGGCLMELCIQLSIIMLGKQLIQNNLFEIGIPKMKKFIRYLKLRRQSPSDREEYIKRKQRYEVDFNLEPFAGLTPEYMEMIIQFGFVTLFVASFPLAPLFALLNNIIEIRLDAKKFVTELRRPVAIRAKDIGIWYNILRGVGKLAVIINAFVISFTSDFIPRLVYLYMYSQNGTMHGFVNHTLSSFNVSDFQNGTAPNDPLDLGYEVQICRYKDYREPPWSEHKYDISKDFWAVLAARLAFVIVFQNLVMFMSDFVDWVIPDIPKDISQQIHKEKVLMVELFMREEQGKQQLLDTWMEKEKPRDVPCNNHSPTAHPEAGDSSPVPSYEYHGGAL

TMEM16A [2] = biological target: T2, TMEM16A (Mus musculus, UniProt Q8BHY3); test: as above; type: cell-based
T2 construct: gene Ano1; full-length (NM_178642.5), stably expressed in CHO cells
T2 sequence (Q8BHY3 1-960): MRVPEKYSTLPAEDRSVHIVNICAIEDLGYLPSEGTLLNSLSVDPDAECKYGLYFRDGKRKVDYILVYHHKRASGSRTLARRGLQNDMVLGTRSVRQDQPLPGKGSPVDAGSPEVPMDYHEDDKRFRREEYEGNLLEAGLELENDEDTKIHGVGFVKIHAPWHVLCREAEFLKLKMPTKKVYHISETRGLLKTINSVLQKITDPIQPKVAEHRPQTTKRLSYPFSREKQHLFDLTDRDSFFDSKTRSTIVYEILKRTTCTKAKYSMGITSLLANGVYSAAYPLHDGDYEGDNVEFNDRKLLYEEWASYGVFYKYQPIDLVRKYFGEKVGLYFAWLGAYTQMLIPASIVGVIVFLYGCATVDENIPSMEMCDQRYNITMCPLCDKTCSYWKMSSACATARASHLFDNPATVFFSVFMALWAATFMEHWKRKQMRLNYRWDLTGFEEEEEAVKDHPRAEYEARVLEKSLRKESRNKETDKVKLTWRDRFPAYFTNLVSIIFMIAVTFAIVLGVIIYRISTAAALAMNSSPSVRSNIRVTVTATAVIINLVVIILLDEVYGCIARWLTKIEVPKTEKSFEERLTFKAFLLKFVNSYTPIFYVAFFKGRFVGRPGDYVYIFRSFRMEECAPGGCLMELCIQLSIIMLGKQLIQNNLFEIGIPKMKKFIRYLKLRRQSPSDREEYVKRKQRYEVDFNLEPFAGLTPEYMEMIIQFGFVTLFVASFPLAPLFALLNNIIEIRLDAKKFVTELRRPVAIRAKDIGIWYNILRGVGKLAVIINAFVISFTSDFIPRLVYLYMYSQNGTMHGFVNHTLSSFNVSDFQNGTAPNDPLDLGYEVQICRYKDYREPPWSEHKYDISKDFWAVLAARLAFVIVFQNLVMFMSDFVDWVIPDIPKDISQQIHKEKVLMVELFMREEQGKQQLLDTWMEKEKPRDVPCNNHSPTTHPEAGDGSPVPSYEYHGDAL

Substance	pEC50 (TMEM16A [1])	pEC50 (TMEM16A [2])
ETX001	7.06	–
ETX004	–	7.42
